Data as given in PMC8869984, “Multifunctional Silver(I) Complexes with Metronidazole Drug Reveal Antimicrobial Properties and Antitumor Activity against Human Hepatoma and Colorectal Adenocarcinoma Cells” (Cancers, 2022).

Key:
E. coli ATCC 25922 = assay: micro-dilution broth method (MIC, MBC); type: cell-based, Escherichia coli
P. mirabilis ATCC 12453 = assay: micro-dilution broth method (MIC, MBC); type: cell-based, Proteus mirabilis
[1] = light stability in normal daylight, visual assessment; type: physicochemical; conditions: for time to complete darkening: on both groundworks (paper, tissue paper)
M. luteus ATCC 10240 = assay: micro-dilution broth method (MIC, MBC); type: cell-based, Micrococcus luteus
H. pylori ATCC 43504 = assay: micro-dilution broth method (MIC, MBC); type: cell-based
[2] = tested on: S. typhimurium ATCC 14028; assay: micro-dilution broth method (MIC, MBC); type: cell-based, Salmonella Typhimurium
F. nucleatum ATCC 25586 = assay: micro-dilution broth method (MIC, MBC); type: cell-based, Fusobacterium nucleatum
P. acnes ATCC 11827 = assay: micro-dilution broth method (MIC, MBC); type: cell-based, Propionibacterium acnes
B. cereus ATCC 10876 = assay: micro-dilution broth method (MIC, MBC); type: cell-based, Bacillus cereus
A. israeli ATCC 10049 = assay: micro-dilution broth method (MIC, MBC); type: cell-based, Actinomyces israelii
B. fragilis ATCC 10240 = assay: micro-dilution broth method (MIC, MBC); type: cell-based, Bacteroides fragilis
C. jejunii ATCC 33291 = assay: micro-dilution broth method (MIC, MBC); type: cell-based, Campylobacter jejunii
[3] = E. coli ATCC 25922, value in brackets
[4] = P. mirabilis ATCC 12453, value in brackets
[5] = 1.25 µmol applied on tissue paper
[6] = M. luteus ATCC 10240, value in brackets
[7] = H. pylori ATCC 43504, value in brackets
[8] = S. typhimurium ATCC 14028, value in brackets
[9] = F. nucleatum ATCC 25586, value in brackets
[10] = P. acnes ATCC 11827, value in brackets
[11] = B. cereus ATCC 10876, value in brackets
[12] = A. israeli ATCC 10049, value in brackets
[13] = B. fragilis ATCC 10240, value in brackets
[14] = C. jejunii ATCC 33291, value in brackets

O=[N+]([O-])[O-].[Ag+] [AgNO3, Silver nitrate]
MBC (E. coli ATCC 25922; E. coli ATCC 25922): 15.6 mg/L | MIC (E. coli ATCC 25922; E. coli ATCC 25922): 7.8 mg/L | MBC (E. coli ATCC 25922; [3]): 0.09 µM/mL | MIC (E. coli ATCC 25922; [3]): 0.049 µM/mL | MBC (P. mirabilis ATCC 12453; P. mirabilis ATCC 12453): 15.6 mg/L | MIC (P. mirabilis ATCC 12453; P. mirabilis ATCC 12453): 7.8 mg/L | MBC (P. mirabilis ATCC 12453; [4]): 0.09 µM/mL | MIC (P. mirabilis ATCC 12453; [4]): 0.049 µM/mL | time of exposure after which darkening began ([1]; 1.25 µmol applied on paper): 10 min | time of exposure after which darkening began [1, 5]: 30 min | time to complete darkening [1]: 24 h | MBC (M. luteus ATCC 10240; M. luteus ATCC 10240): 31.3 mg/L | MIC (M. luteus ATCC 10240; M. luteus ATCC 10240): 3.9 mg/L | MBC (M. luteus ATCC 10240; [6]): 0.185 µM/mL | MIC (M. luteus ATCC 10240; [6]): 0.025 µM/mL | MBC (H. pylori ATCC 43504; H. pylori ATCC 43504): 15.6 mg/L | MIC (H. pylori ATCC 43504; H. pylori ATCC 43504): 15.6 mg/L | MBC (H. pylori ATCC 43504; [7]): 0.09 µM/mL | MIC (H. pylori ATCC 43504; [7]): 0.09 µM/mL | MBC ([2]; S. typhimurium ATCC 14028): 15.6 mg/L | MIC ([2]; S. typhimurium ATCC 14028): 15.6 mg/L | MBC [2, 8]: 0.09 µM/mL | MIC [2, 8]: 0.09 µM/mL | MBC (F. nucleatum ATCC 25586; F. nucleatum ATCC 25586): 0.98 mg/L | MIC (F. nucleatum ATCC 25586; F. nucleatum ATCC 25586): 0.49 mg/L | MBC (F. nucleatum ATCC 25586; [9]): 0.006 µM/mL | MIC (F. nucleatum ATCC 25586; [9]): 0.003 µM/mL | MBC (P. acnes ATCC 11827; P. acnes ATCC 11827): 62.5 mg/L | MIC (P. acnes ATCC 11827; P. acnes ATCC 11827): 62.5 mg/L | MBC (P. acnes ATCC 11827; [10]): 0.37 µM/mL | MIC (P. acnes ATCC 11827; [10]): 0.37 µM/mL | MBC (B. cereus ATCC 10876; B. cereus ATCC 10876): 62.5 mg/L | MIC (B. cereus ATCC 10876; B. cereus ATCC 10876): 31.3 mg/L | MBC (B. cereus ATCC 10876; [11]): 0.37 µM/mL | MIC (B. cereus ATCC 10876; [11]): 0.185 µM/mL | MBC (A. israeli ATCC 10049; A. israeli ATCC 10049): 0.49 mg/L | MIC (A. israeli ATCC 10049; A. israeli ATCC 10049): 0.49 mg/L | MBC (A. israeli ATCC 10049; [12]): 0.003 µM/mL | MIC (A. israeli ATCC 10049; [12]): 0.003 µM/mL | MBC (B. fragilis ATCC 10240; B. fragilis ATCC 10240): 62.5 mg/L | MIC (B. fragilis ATCC 10240; B. fragilis ATCC 10240): 15.6 mg/L | MBC (B. fragilis ATCC 10240; [13]): 0.37 µM/mL | MIC (B. fragilis ATCC 10240; [13]): 0.09 µM/mL | MBC (C. jejunii ATCC 33291; C. jejunii ATCC 33291): 125 mg/L | MIC (C. jejunii ATCC 33291; C. jejunii ATCC 33291): 62.5 mg/L | MBC (C. jejunii ATCC 33291; [14]): 0.74 µM/mL | MIC (C. jejunii ATCC 33291; [14]): 0.37 µM/mL

O=S(=O)([O-])[O-].[Ag+].[Ag+] [Ag2SO4, silver sulfate]
MBC (E. coli ATCC 25922; E. coli ATCC 25922): 62.5 mg/L | MIC (E. coli ATCC 25922; E. coli ATCC 25922): 62.5 mg/L | MBC (E. coli ATCC 25922; [3]): 0.2 µM/mL | MIC (E. coli ATCC 25922; [3]): 0.2 µM/mL | MBC (P. mirabilis ATCC 12453; P. mirabilis ATCC 12453): 31.3 mg/L | MIC (P. mirabilis ATCC 12453; P. mirabilis ATCC 12453): 31.3 mg/L | MBC (P. mirabilis ATCC 12453; [4]): 0.1 µM/mL | MIC (P. mirabilis ATCC 12453; [4]): 0.1 µM/mL | time of exposure after which darkening began ([1]; 1.25 µmol applied on paper): 10 min | time of exposure after which darkening began [1, 5]: 30 min | time to complete darkening [1]: 24 h | MBC (M. luteus ATCC 10240; M. luteus ATCC 10240): 125 mg/L | MIC (M. luteus ATCC 10240; M. luteus ATCC 10240): 15.6 mg/L | MBC (M. luteus ATCC 10240; [6]): 0.4 µM/mL | MIC (M. luteus ATCC 10240; [6]): 0.05 µM/mL | MBC (H. pylori ATCC 43504; H. pylori ATCC 43504): 15.6 mg/L | MIC (H. pylori ATCC 43504; H. pylori ATCC 43504): 15.6 mg/L | MBC (H. pylori ATCC 43504; [7]): 0.05 µM/mL | MIC (H. pylori ATCC 43504; [7]): 0.05 µM/mL | MBC ([2]; S. typhimurium ATCC 14028): 250 mg/L | MIC ([2]; S. typhimurium ATCC 14028): 31.3 mg/L | MBC [2, 8]: 0.8 µM/mL | MIC [2, 8]: 0.1 µM/mL | MBC (F. nucleatum ATCC 25586; F. nucleatum ATCC 25586): 31.3 mg/L | MIC (F. nucleatum ATCC 25586; F. nucleatum ATCC 25586): 31.3 mg/L | MBC (F. nucleatum ATCC 25586; [9]): 0.1 µM/mL | MIC (F. nucleatum ATCC 25586; [9]): 0.1 µM/mL | MBC (P. acnes ATCC 11827; P. acnes ATCC 11827): 500 mg/L | MIC (P. acnes ATCC 11827; P. acnes ATCC 11827): 125 mg/L | MBC (P. acnes ATCC 11827; [10]): 1.6 µM/mL | MIC (P. acnes ATCC 11827; [10]): 0.4 µM/mL | MBC (B. cereus ATCC 10876; B. cereus ATCC 10876): 500 mg/L | MIC (B. cereus ATCC 10876; B. cereus ATCC 10876): 31.3 mg/L | MBC (B. cereus ATCC 10876; [11]): 1.6 µM/mL | MIC (B. cereus ATCC 10876; [11]): 0.1 µM/mL | MBC (A. israeli ATCC 10049; A. israeli ATCC 10049): 15.6 mg/L | MIC (A. israeli ATCC 10049; A. israeli ATCC 10049): 0.98 mg/L | MBC (A. israeli ATCC 10049; [12]): 0.05 µM/mL | MIC (A. israeli ATCC 10049; [12]): 0.003 µM/mL | MBC (B. fragilis ATCC 10240; B. fragilis ATCC 10240): 1000 mg/L | MIC (B. fragilis ATCC 10240; B. fragilis ATCC 10240): 250 mg/L | MBC (B. fragilis ATCC 10240; [13]): 3.2 µM/mL | MIC (B. fragilis ATCC 10240; [13]): 0.8 µM/mL | MBC (C. jejunii ATCC 33291; C. jejunii ATCC 33291): > 1000 mg/L | MIC (C. jejunii ATCC 33291; C. jejunii ATCC 33291): 1000 mg/L | MBC (C. jejunii ATCC 33291; [14]): > 3.2 µM/mL | MIC (C. jejunii ATCC 33291; [14]): 3.2 µM/mL
